Measurements taken from patent publication US11246868B2, “Treatment of hippo pathway mutant tumors and methods of identifying subjects as candidates for treatment” (ICAHN SCHOOL OF MEDICINE AT MOUNT SINAI, priority 2016, dated 2022).
Entries after “also recorded” stand apart in the source; their conditions may differ.

Assays:
H2373 cells = test: Clonogenic proliferation (colony formation) assay, H2373; assay type: cell-based, human; conditions: for proliferation / colony formation: H2373 cells (NF2 mutant), 10 to 14 days
Protocol: (§6) For clonogenic proliferation assay, cells were plated in triplicate at 1×10^3 cells in 6-well plates. For analysis of the effects of inhibitors on cell proliferation, fresh medium with inhibitor was replaced every 48 hours. After 10 to 14 days of treatment, cultures were fixed and stained with 1% crystal violet (in ethanol) and photographed.

[1] = system: angiomotin proteins (AMOT, AMOTL2); test: Western blot of angiomotin protein levels; assay type: cell-based, human; conditions: 10 μM; for angiomotin protein levels (AMOT in 293T, AMOTL2 in H2373): 293T and H2373 cells
Protocol: (§1) Cells were harvested in EBC lysis buffer (50 mM Tris-HCl at pH 7.5, 150 mM NaCl, 5 mM EDTA, 0.5% NP-40), supplemented with Complete Mini Protease and Phosphatase Inhibitor Cocktails (Roche, Indianapolis, Ind., USA). Cells were lysed and 30-80 μg protein subjected to SDS-PAGE followed by transfer onto an Immobilon-FL PVDF membrane (Millipore, Billerica, Mass., USA) and incubation with the indicated antibodies. Detection was carried out with an Odyssey Infrared Imaging System (LI-COR Biosciences, Lincoln, Nebr., USA) with IR dye-tagged secondary antibodies (LI-COR Biosciences). The following antibodies were utilized: mouse anti-YAP, goat anti-NF2, mouse anti-AMOT, goat anti-AMOTL1, goat anti-AMOTL2 (Santa Cruz, Dallas, Tex., USA), mouse anti-FlagM2 (Sigma, Saint Louis, Mo., USA), rabbit anti-LATS1, rabbit anti-LATS2, rabbit anti-p-YAP (Cell Signaling, Danvers, Mass., USA), TNKS1/2 (Santa Cruz, Dallas, Tex., USA), mouse anti-TEAD4, mouse anti-RAS (Thermo Scientific, Waltham, Mass., USA), mouse anti-α-Tubulin, mouse anti-β-actin (Sigma, Saint Louis, Mo., USA).

[2] = system: MCF10A cells stably expressing HRAS-V12; test: Anchorage-independent growth assay, HRAS-V12-transformed MCF10A; assay type: cell-based, human; conditions: MCF10A stably expressing HRAS-V12, 3 weeks
Protocol: (§2) Cells were fed every 4 days for 3 weeks by adding 0.2 mL of growth medium containing either 0.1% DMSO as a control or compounds in 0.1% DMSO at the concentrations indicated.

YAP S127 phosphorylation = test: Western blot of YAP S127 phosphorylation; assay type: cell-based, human; conditions: H2373 cells, varying XAV939 concentrations, 24 hours
Protocol: as §1

[3] = system: TEAD target genes (CTGF, CYR61, ANKRD1); test: Quantitative RT-PCR of TEAD target genes; assay type: cell-based, human; conditions: for TEAD target gene expression (CTGF, CYR61, ANKRD1 mRNA): 293T and H2373 cells, 10 μM
Protocol: (§3) Total RNA was extracted from cells using the RNeasy Mini kit (Qiagen, Hilden, Germany) following the manufacturer's instructions. 1 μg of total RNA was used for cDNA synthesis using Superscript II (Invitrogen, Carlsbad, Calif., USA) according to the manufacturer's instructions.
(§4) Quantitative RT-PCR was performed using the ViiA™ 7 Real-Time PCR System (Life Technologies, Carlsbad, Calif., USA) using the FastStart SYBR Green Master mix (Roche, Indianapolis, Ind., USA). Primers were as follows: […]
(§5) PCR was performed in 384 well plates in 10 μl total volumes under the following conditions: 95° C. for 15 min, followed by 40 cycles of 94° C. for 15 sec, 61° C. for 30 sec, and 72° C. for 30 sec. Specificity was verified by a dissociation curve. Results were analyzed with ViiA7 RUO software (Life Technologies, Carlsbad, Calif., USA). Gene expression levels were normalized to GAPDH expression.

[4] = system: AMOT, AMOTL1, AMOTL2 mRNA; test: qRT-PCR of angiomotin mRNA levels; assay type: cell-based, human; conditions: 293T and H2373 cells, 10 μM, 24 hours
Protocol: as §3, §4, §5

AMOT-YAP protein complex = test: Co-immunoprecipitation of endogenous AMOT and YAP; assay type: cell-based, human; conditions: 293T cells, 10 μM, 24 hours
Protocol: Cells were harvested in RIPA lysis buffer (50 mM Tris-Cl; pH 8.0, 5 mM EDTA, 1% Triton X-100, 0.1% sodium deoxycholate, 0.1% SDS, 150 mM NaCl) supplemented with Complete Mini Protease and Phosphatase Inhibitor Cocktails. 800 μg proteins were incubated with 10 μg of antibody overnight at 4° C. Anti-mouse or anti-rabbit IgG (Santa Cruz, Dallas, Tex., USA) was used as a negative control. Immunoprecipitated complexes were captured by 2 h incubation at 4° C. with Dynabeads Protein A/G B (Invitrogen, Carlsbad, Calif., USA), followed by three washes in lysis buffer. Immunoprecipitated complexes were eluted by boiling for 5 min with Laemmli buffer (150 mM Tris-Cl; pH 6.8, 20% glycerol, 4% SDS, 0.002% bromophenol blue, 2% 2-mercaptoethanol) with 10% of the total lysates run on the same gel for comparative immunoblot analysis.

[5] = system: TEAD transcriptional activity; test: TEAD luciferase reporter assay; assay type: cell-based, human; conditions: for TEAD reporter activity: 293T and H2373 cells, 24 hours, comparison of TNKS and PARP1/2 inhibitors
Protocol: A set of in-house kinase and commercially available inhibitors was used to screen for effects on the TEAD luciferase reporter. 293 cells expressing the TEAD reporter along with renilla-lucifease (20:1 ratio) were plated at low density (2×10^4 cells) in 24 well plates in triplicate. 24 hours after plating, the cells were treated with 10 μM of each compound or DMSO as control. 24 hours later, dual-luciferase reporter assay was performed according to the manufacturer's protocol (Promega, Madison Wis., USA), using TD-20e Luminometer (Turner Biosystem, Promega, Madison Wis., USA). TEAD reporter activity was normalized to renilla luciferase. The Log 2 values were calculated for each compound using the DMSO sample as control.

PTEN = test: Western blot of PTEN levels; assay type: cell-based, human; conditions: H2052 and H2373 cells, 10 μM, time course
Protocol: as §1

YAP = test: Immunofluorescence of YAP sub-cellular localization; assay type: cell-based, human; conditions: 24 hours
Protocol: Cells cultured on glass coverslips were fixed for 10 min with 4% paraformaldehyde in 1×PBS at 37° C. and permeabilized for 3 min with 0.02% Triton-X100, following exposure for 1 hour to a blocking solution (PBS containing 5% BSA). Coverslips were then incubated at room temperature with the following primary antibodies: anti-YAP (Santa Cruz, Dallas, Tex., USA) and anti-Flag M2 (Sigma, Saint Louis, Mo., USA). Corresponding secondary antibodies were Alexa fluor conjugated (Molecular Probes, Eugene, Oreg., USA). 2 μg/ml DAPI was used as a counter stain and was used to label nuclei. Imaging was performed using an Axioplan 2 Imaging System (Zeiss, Oberkochen, Germany).

[6] = system: Hippo pathway mutant tumor cells and Hippo pathway wild-type cells; test: Cell cycle profile by Propidium Iodide staining; assay type: cell-based, human; conditions: 10 μM, 72 hours
Excerpt: Statistical analysis of the cell cycle profile is shown below. Error bars indicate SD of experiments performed in triplicate.

angiomotin = conditions: reported by Wang et al. 2015; cited from earlier work
[7] = system: YAP overexpressing MCF10A cells; conditions: cited from earlier work
293T cells = test: Clonogenic proliferation (colony formation) assay, 293T; assay type: cell-based, human; conditions: 10 to 14 days
Protocol: as §6

[8] = system: liver tumor growth induced by YAP overexpression or NF2 inactivation; conditions: mice, tumors induced by YAP overexpression or NF2 inactivation; cited from earlier work
[9] = system: MCF10A cells stably expressing YAP-WT or YAP-S127A; test: Anchorage-independent growth assay, YAP-transformed MCF10A; assay type: cell-based, human; conditions: 3 weeks
Protocol: as §2

Compound: Oc1nc(-c2ccc(C(F)(F)F)cc2)nc2c1CSCC2 [XAV939]
- inhibitory effect on colony formation under AMOTL2 silencing (H2373 cells; H2373 cells, doxycycline-inducible AMOTL2 shRNA, 10 μM XAV939, 14 days): almost completely rescued
- angiomotin protein levels (AMOT in 293T, AMOTL2 in H2373) ([1]; 24 hours): strikingly increased
- AMOTL2 protein levels ([1]; H2052 cells, 24 hrs): increased
- AMOTL2 protein levels, time course ([1]; H2373 as compared to resistant H2052 cells, 12 days): stabilized higher, durable levels
- AMOTL2 levels ([1]; Hippo mutant MESO25 and 211H cells, 24 hours): Increased
- durable stabilization of AMOTL2 ([1]; resistant H2052 cells): failed to durably stabilize
- HRAS-V12-induced agar colony formation [2]: lacked any effect; also recorded: not inhibited
- YAP S127 phosphorylation status (YAP S127 phosphorylation): did not show any significant differences
- expression of TEAD target genes (CTGF, CYR61, ANKRD1 mRNA) ([3]; H2052 cells, 24 hours): only modestly affected
- expression of TEAD target genes ([3]; MCF10A cells stably overexpressing YAP-S127A): inhibited
- expression of TEAD target genes (CTGF, CYR61, ANKRD1 mRNA) ([3]; all cell lines tested with the exception of H2052, 24 hours): markedly decreased
- AMOT, AMOTL1, AMOTL2 mRNA levels [4]: did not markedly affect
- AMOT-YAP protein complex (AMOT-YAP protein complex): enrichment
- inhibitory effect on TEAD transcriptional activity under AMOTL2 silencing ([5]; H2373 cells, doxycycline-inducible AMOTL2 shRNA, 10 μM XAV939): almost completely rescued
- levels of PTEN (PTEN): increased modestly
- YAP sub-cellular localization (YAP; H2373 cells, endogenous YAP): induced YAP re-localization to the cytoplasm
- YAP-S127A sub-cellular localization (YAP; MCF10A stably expressing YAP-S127A): significant shift of YAPS127A to the cytoplasm
- cell cycle profile ([6]; cell lines which were not growth inhibited): no detectable cell cycle alteration
- cell cycle profile ([6]; tumor lines whose proliferation was inhibited): increased G1 and reduced S phase fractions
- angiomotin stabilization (angiomotin): stabilized
- acini formation in matrigel [7]: inhibited

Compound: C[C@]1(c2nc3c(C(N)=O)cccc3[nH]2)CCCN1 [ABT-888]
- proliferation / colony formation (H2373 cells): did not affect
- angiomotin protein levels (AMOT in 293T, AMOTL2 in H2373) ([1]; 24 hours): lacked any effect
- proliferation / colony formation (293T cells): did not affect
- TEAD target gene expression (CTGF, CYR61, ANKRD1 mRNA) ([3]; 24 hours): did not affect
- AMOT, AMOTL1, AMOTL2 mRNA levels [4]: lacked any effect
- TEAD reporter activity [5]: did not affect

Compound: CC(C)c1ccc(-c2cc(=O)c3ccccc3o2)cc1 [MN-64]
- proliferation / colony formation (H2373 cells): significantly decreased
- angiomotin protein levels (AMOT in 293T, AMOTL2 in H2373) ([1]; 24 hours): strikingly increased
- TEAD target gene expression (CTGF, CYR61, ANKRD1 mRNA) ([3]; 24 hours): able to inhibit
- AMOT, AMOTL1, AMOTL2 mRNA levels [4]: did not markedly affect
- TEAD reporter activity [5]: able to inhibit

Compound: verteporfin
- HRAS-V12-induced agar colony formation [2]: completely blocked
- liver tumor growth [8]: suppressed
- YAP-WT- and YAP-S127A-induced anchorage-independent cell growth (soft agar colonies) [9]: completely blocked

Compound: O=C(Nc1cccc2cccnc12)c1ccc(N2C(=O)[C@@H]3[C@H](C2=O)[C@@H]2C=C[C@H]3C2)cc1 [IWR1]
- proliferation / colony formation (H2373 cells): significantly decreased
- angiomotin protein levels (AMOT in 293T, AMOTL2 in H2373) ([1]; 24 hours): strikingly increased
- TEAD target gene expression (CTGF, CYR61, ANKRD1 mRNA) ([3]; 24 hours): able to inhibit
- AMOT, AMOTL1, AMOTL2 mRNA levels [4]: did not markedly affect
- TEAD reporter activity [5]: able to inhibit
